According to ChEMBL document CHEMBL1143290, “In vitro anti-inflammatory activity of lignans isolated from Magnolia fargesii” (Bioorg Med Chem Lett, 2009):

Experiments:
BV-2 = assay: Inhibition of NO production in LPS-stimulated mouse BV2 cells assessed as nitrite accumulation after 20 hrs by Griess reagent method; assay type: functional, cell-based; conditions: BV-2, 20 h
[1] = Inhibition of NOS

| SMILES | IC50 (BV-2) | IC50 [1] |
| --- | --- | --- |
| COc1cc([C@H]2OC[C@H]3[C@@H]2CO[C@@H]3c2cc(OC)c(OC)c(OC)c2)cc(OC)c1OC | 28.6 µM |  |
| COc1ccc([C@H]2OC[C@H]3[C@@H]2CO[C@@H]3c2cc(OC)c(OC)c(OC)c2)cc1OC | 20.5 µM |  |
| COc1ccc([C@H]2OC[C@H]3[C@@H]2CO[C@@H]3c2ccc(OC)c(OC)c2)cc1OC [(+)-EUDESMIN] | 30 µM |  |
| CNC(=N)NCCC[C@H](N)C(=O)O [TILARGININE] |  | 19.2 µM |
